Experiment: Waters ACQUITY UPLC HSS T3, 0.4 mL/min; A: water + 0.1% formic acid; B: acetonitrile + 0.1% formic acid; gradient (min/%B) 0/5 1.5/5 12/95 14/95 14.01/100 17/100
Details: stereoisomer not certain

SMILES | LC retention time
C[N+](C)(C)CCOP(=O)([O-])OCC(O)CO (stereo unspecified) | 0.761 min
CC12CCC(=O)C=C1CCC1C2C(O)CC2(C)C(C(O)CC(=O)O)CCC12 (stereo unspecified) | 5.01 min
CN1CC(c2ccc(O)cc2)OC1(C)C (stereo unspecified) | 4.98 min
CC(C)=CCCC(C)(O)C1CCC2(C)C1C(O)CC1C3(C)CCC(OC4OC(COC5OCC(O)C(O)C5O)C(O)C(O)C4O)C(C)(C)C3CCC12C (stereo unspecified) | 10.8 min
CCCCCC=CCC=CCC=CCCCCC(=O)OCC(COP(=O)(O)OCC(O)CO)OC(=O)CCCCCCCCCCCCCCC (stereo unspecified) | 13.9 min
C=C1C(=O)OC2C1CC=C1CC(C)(CCC1OO)C2O (stereo unspecified) | 6.31 min
CC(=O)OCC(N)C(=O)O (stereo unspecified) | 0.786 min
O=C(O)CC1CCC(=O)C1CC=CCCOC1OC(CO)C(O)C(O)C1O (stereo unspecified) | 0.755 min
CC(=O)C1CCC2C3CC=C4CC(O)CCC4(C)C3CCC12C (stereo unspecified) | 11.8 min
CC(CCc1ccccc1)NCC(O)c1ccc(O)c(C(N)=O)c1 (stereo unspecified) | 4.52 min
CCC1OC(=O)C(C)C(OC2CC(C)(O)C(O)C(C)O2)C(C)C(O)C(C)(O)CC(C)C(=O)C(C)C(O)C1C (stereo unspecified) | 9.82 min
CC(C)=CCCC(C)(O)C1CCC2(C)C1C(O)CC1C3(C)CCC(OC4OC(CO)C(O)C(O)C4OC4OC(CO)C(O)C(O)C4O)C(C)(C)C3CCC12C (stereo unspecified) | 9.82 min
CC(C)C1=CC2(O)CCC3C(C)(C(=O)O)CCCC3(C)C2CC1=O (stereo unspecified) | 4.99 min
CC(CP(CCCCCCS(=O)(=O)[O-])CCCCCCS(=O)(=O)[O-])P(CCCCCCS(=O)(=O)[O-])CCCCCCS(=O)(=O)[O-] (stereo unspecified) | 1.02 min
CC(CCC(=O)NCCS(=O)(=O)O)C1CCC2C3C(O)CC4CC(O)CCC4(C)C3CC(O)C12C (stereo unspecified) | 4.43 min
C[N+](C)(C)CCO | 0.706 min
COc1cc2c(cc1OC)CN(C)CC2 | 4.98 min

SMILES | LC retention time
CC(=O)NC(CC(C)C)C(=O)NC(CC(C)C)C(=O)NC(C=O)CCCN=C(N)N (stereo unspecified) | 12.2 min
CC1(C)C2C(O)CC(C)(C2O)C1OC1OC(CO)C(O)C(O)C1O (stereo unspecified) | 3.99 min
Oc1cc(O)c2c(c1)OC(c1cc(O)c(O)c(O)c1)C(O)C2 (stereo unspecified) | 1.05 min
CCCCCC=CCC=CCC=CCCCCC(=O)OC(COC(=O)CCCCCCCCCCCCCCC)COP(=O)(O)OCC(O)CO (stereo unspecified) | 13.9 min
CC1CCC2(NC1)OC1CC3C4CC=C5CC(OC6OC(CO)C(OC7OC(C)C(O)C(O)C7O)C(O)C6O)CCC5(C)C4CCC3(C)C1C2C (stereo unspecified) | 9.86 min
CCCCCC(C)S (stereo unspecified) | 1.3 min
CC(C)CC(NC(=O)OC(C)(C)C)C(=O)O (stereo unspecified) | 3 min
CCC=CCC(O)C=CC=CC=CC=CC(O)C(O)CC=CCCC(=O)O (stereo unspecified) | 5.01 min
OCCOCCOCCOCCOCCOCCOCCO | 3.99 min
CCCCCC(N)C(=O)O (stereo unspecified) | 0.772 min
CC(=CC(=O)OC1OC(CO)C(O)C(O)C1O)CCC=C(C)CCC(O)C(C)(C)O (stereo unspecified) | 9.03 min
CC1CCC2(C(=O)O)CCC3(C)C(=CCC4C5(C)CCC(OC(=O)c6ccccc6)C(C)(C)C5C(=O)CC43C)C2C1C (stereo unspecified) | 11 min
CN(C)C | 0.706 min
CCCC(=O)OC(CC(=O)[O-])C[N+](C)(C)C (stereo unspecified) | 3 min
CC1CCC2(C(=O)O)CCC3(C)C(=CC(=O)C4C5(C)CCC(OC(=O)c6ccccc6)C(C)(C)C5CCC43C)C2C1C (stereo unspecified) | 11 min
CCC(C)C(=O)OC1CC(C)(O)C=C2C=CC(C)C(CCC3CC(O)CC(=O)O3)C21 (stereo unspecified) | 5.18 min
CC1=CC(O)CC(C)(C)C1(O)C=CC(C)OC1OC(COC2OCC(O)(CO)C2O)C(O)C(O)C1O (stereo unspecified) | 4.44 min

The next lines start with the values.

LC retention time | SMILES
3.99 min | CC1(C)OC2(C)CC(O)C1CC2OC1OC(CO)C(O)C(O)C1O (stereo unspecified)
13.9 min | CCCCCC=CCC=CCCCCCCCC(=O)OCC(COP(=O)(O)OCC(O)CO)OC(=O)CCCCCCCC=CCCCCCC (stereo unspecified)
4.99 min | CCCCCC(=O)CCC1C=CC(=O)C1CC=CCCCC(=O)O (stereo unspecified)
10.5 min | CCCCCCCCCCCCCCCCCCOC(=O)CC(O)(CC(=O)O)C(=O)O (stereo unspecified)
1.02 min | CC(C)C(N)C(=O)O (stereo unspecified)
1.3 min | O=S(=O)([O-])CCCCCCCP(CCCCCCCS(=O)(=O)[O-])CN(CP(CCCCCCCS(=O)(=O)[O-])CCCCCCCS(=O)(=O)[O-])c1ccccc1
4.81 min | C=CC(C)(CCC=C(C)CCC=C(C)CCC(OC1OC(CO)C(O)C(O)C1O)C(C)(C)O)OC1OC(CO)C(O)C(O)C1O (stereo unspecified)
0.786 min | CNC(CC(=O)O)C(=O)O (stereo unspecified)
9.77 min | CCCCCCCCCCCCCCCCCCCCCCCCC(=O)NCC(=O)O
5.56 min | CC(C)C(CCC(C)C1CC(O)C2C1(C)CCC1C3(C)CCC(OC4OCC(O)C(O)C4O)CC3C(O)CC12O)OC1OCC(O)C(O)C1O (stereo unspecified)
9.02 min | CCCCCC=CCC(O)CC=CC=CC(SCC(N)C(=O)O)C(O)CCCC(=O)O (stereo unspecified)
5.43 min | CCCCCCCCCCCCCCCC(=O)OCC(COP(=O)([O-])OCC[N+](C)(C)C)OC(=O)CCCC(O)C=CC=O (stereo unspecified)
13 min | CCCCCCC=CCCCCCCCC(=O)OCC(COP(=O)(O)OCC(O)CO)OC(=O)CCCCCCCC=CCCCCCC (stereo unspecified)
9.56 min | CCCCCCCCC=CCCCCCCCC(=O)OC(CC(=O)[O-])C[N+](C)(C)C (stereo unspecified)
5.47 min | CCC(C)C(C(=O)NC(C(=O)NC1C(=O)NC(Cc2c[nH]c3ccccc23)C(=O)NCC(=O)c2ccc(cc2)OC1(C)C)C(C)C)N(C)C (stereo unspecified)
10.6 min | Cc1cc(O)cc(O)c1C(=O)OC1CC2(C)C3CC(C)(C)CC3C=C(C=O)C12 (stereo unspecified)
0.829 min | CC(NC(=O)C(N)CC(=O)O)NC(=O)N(C)C(C)(C)C (stereo unspecified)
5.17 min | COC(=O)C1(OC(C)=O)CC23CCC4C(C)(O)CCCC4(C)C2CCC1C3 (stereo unspecified)
6.31 min | C=C1CCC2C(OC(=O)C2(O)CO)C2C(C)C(=O)CC12 (stereo unspecified)

LC retention time | SMILES
6.31 min | CC1C(=O)OC2C3=C(C(=O)CC3(C)O)C(C)(O)CCC12 (stereo unspecified)
3.91 min | CCCCCC(=O)OCCC(CCC)SC (stereo unspecified)
10.5 min | CCCCCCCCCCCCCCCCCCOC(=O)C(O)(CC(=O)O)CC(=O)O
4.44 min | CC1=CC(=O)CC(C)(C)C1(O)CCC(C)OC1OC(COC2OCC(O)(CO)C2O)C(O)C(O)C1O (stereo unspecified)
8.51 min | CCCCCC(O)C=CC1OC(O)CC(O)C1CC=CCC(=O)O (stereo unspecified)
6.54 min | NCCCCCCCCCCCC(=O)O
1.02 min | Nc1ccnc(=O)[nH]1
1.06 min | CC(=O)c1cnccn1
10.4 min | CCCCCCCCCCCCCCCC(=O)OC1C(C)OC(OC2C(OCCCC)OC(CO)C(O)C2O)C(O)C1O (stereo unspecified)
4.43 min | CC(CCC(=O)NCCS(=O)(=O)O)C1CCC2C3C(O)C(O)C4CC(O)CCC4(C)C3CCC12C (stereo unspecified)
4.91 min | CCCCCCC=CCCCCCCCC(=O)OC(CO)COP(=O)(O)OCCN (stereo unspecified)
13.9 min | CCC=CCC=CCC=CCCCCCCCC(=O)OC(COC(=O)CCCCCCCCCCCCCCC)COP(=O)(O)OCC(O)CO (stereo unspecified)
4.99 min | CCCCCC(O)C=CC1=CCC(=O)C1CC=CCCCC(=O)O (stereo unspecified)
0.786 min | NC(CCC(=O)O)C(=O)O (stereo unspecified)
5.64 min | CCCCCCCCCCCCCCCCCC(=O)OC(CO)COP(=O)(O)OCC(O)CO (stereo unspecified)
13.9 min | CCCCCC=CCC=CCCCCCCCC(=O)OC(COC(=O)CCCCCCCC=CCCCCCC)COP(=O)(O)OCC(O)CO (stereo unspecified)
4.99 min | CCC=CCC=CCC(O)C=CC=CC=CC(O)CCCC(=O)O (stereo unspecified)
0.806 min | NCCC(=O)O
